Test results: ChEMBL document CHEMBL5291721, “A preclinical secondary pharmacology resource illuminates target-adverse drug reaction associations of marketed drugs” (Nat Commun, 2023)

Tests used:
[1] = biological target: T1, Peroxisome proliferator-activated receptor alpha (Homo sapiens, UniProt Q07869); assay type: functional
T1 sequence (Q07869 whole entry): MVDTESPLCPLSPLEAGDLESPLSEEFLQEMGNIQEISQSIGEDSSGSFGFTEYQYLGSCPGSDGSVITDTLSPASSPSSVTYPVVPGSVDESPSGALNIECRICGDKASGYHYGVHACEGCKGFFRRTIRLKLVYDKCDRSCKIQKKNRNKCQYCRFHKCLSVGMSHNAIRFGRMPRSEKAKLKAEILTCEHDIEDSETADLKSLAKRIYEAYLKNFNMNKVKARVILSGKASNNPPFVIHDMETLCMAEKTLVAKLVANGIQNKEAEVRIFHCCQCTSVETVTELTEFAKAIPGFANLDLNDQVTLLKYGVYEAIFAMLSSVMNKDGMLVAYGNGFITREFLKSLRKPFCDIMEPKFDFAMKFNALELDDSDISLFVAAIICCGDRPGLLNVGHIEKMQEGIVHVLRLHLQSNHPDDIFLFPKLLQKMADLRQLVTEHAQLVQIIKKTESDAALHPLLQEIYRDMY

[2] = biological target: T2, Prostaglandin G/H synthase 1 (Rattus norvegicus, UniProt Q63921); assay type: functional
T2 sequence (Q63921 whole entry): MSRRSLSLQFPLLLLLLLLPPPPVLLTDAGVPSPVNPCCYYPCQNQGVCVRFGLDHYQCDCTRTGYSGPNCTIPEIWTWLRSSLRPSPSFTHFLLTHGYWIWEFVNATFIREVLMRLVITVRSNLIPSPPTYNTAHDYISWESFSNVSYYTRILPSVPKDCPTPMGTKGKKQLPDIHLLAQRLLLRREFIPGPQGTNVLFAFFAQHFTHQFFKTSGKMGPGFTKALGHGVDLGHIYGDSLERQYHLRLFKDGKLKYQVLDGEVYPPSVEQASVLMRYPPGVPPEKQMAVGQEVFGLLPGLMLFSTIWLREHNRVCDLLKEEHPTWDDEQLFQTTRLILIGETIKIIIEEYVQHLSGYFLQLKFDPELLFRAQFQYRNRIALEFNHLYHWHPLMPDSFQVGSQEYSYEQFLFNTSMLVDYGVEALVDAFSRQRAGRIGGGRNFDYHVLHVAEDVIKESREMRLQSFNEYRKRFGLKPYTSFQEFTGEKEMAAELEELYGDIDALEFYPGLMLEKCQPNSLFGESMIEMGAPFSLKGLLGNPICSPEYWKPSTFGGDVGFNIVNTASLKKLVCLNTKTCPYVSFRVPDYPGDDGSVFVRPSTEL

[3] = biological target: Gamma-aminobutyric acid receptor subunit alpha-1/alpha-2/beta-2/gamma-2 (Homo sapiens, UniProt P14867+P18507+P47869+P47870); assay type: protein-complex assay
Chain of Gamma-aminobutyric acid receptor subunit alpha-1/alpha-2/beta-2/gamma-2 (P14867 whole entry): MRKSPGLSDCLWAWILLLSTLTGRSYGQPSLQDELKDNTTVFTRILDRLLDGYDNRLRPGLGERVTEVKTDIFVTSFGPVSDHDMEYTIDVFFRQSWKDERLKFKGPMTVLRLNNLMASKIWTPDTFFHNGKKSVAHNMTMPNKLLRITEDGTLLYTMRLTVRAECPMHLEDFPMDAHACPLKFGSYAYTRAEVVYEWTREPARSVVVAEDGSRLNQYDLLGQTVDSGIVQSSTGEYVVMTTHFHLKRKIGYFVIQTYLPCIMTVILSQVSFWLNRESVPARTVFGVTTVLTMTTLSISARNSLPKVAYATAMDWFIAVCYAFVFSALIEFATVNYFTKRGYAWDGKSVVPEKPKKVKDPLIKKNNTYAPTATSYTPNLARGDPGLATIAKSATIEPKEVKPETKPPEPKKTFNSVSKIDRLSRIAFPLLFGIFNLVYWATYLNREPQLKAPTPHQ
Chain of Gamma-aminobutyric acid receptor subunit alpha-1/alpha-2/beta-2/gamma-2 (P47870 whole entry): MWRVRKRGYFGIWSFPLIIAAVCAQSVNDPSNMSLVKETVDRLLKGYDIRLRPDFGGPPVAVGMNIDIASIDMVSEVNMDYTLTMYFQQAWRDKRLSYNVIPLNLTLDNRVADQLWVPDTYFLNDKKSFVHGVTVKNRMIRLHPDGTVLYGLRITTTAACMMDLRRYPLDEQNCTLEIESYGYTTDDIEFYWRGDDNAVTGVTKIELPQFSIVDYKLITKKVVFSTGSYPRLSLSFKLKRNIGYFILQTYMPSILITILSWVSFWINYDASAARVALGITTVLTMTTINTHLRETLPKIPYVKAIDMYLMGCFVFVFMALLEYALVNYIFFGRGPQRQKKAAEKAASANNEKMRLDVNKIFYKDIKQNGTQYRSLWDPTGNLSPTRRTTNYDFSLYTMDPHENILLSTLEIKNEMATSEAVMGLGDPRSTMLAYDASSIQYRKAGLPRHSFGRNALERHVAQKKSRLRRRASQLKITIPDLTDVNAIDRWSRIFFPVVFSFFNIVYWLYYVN
Chain of Gamma-aminobutyric acid receptor subunit alpha-1/alpha-2/beta-2/gamma-2 (P18507 whole entry): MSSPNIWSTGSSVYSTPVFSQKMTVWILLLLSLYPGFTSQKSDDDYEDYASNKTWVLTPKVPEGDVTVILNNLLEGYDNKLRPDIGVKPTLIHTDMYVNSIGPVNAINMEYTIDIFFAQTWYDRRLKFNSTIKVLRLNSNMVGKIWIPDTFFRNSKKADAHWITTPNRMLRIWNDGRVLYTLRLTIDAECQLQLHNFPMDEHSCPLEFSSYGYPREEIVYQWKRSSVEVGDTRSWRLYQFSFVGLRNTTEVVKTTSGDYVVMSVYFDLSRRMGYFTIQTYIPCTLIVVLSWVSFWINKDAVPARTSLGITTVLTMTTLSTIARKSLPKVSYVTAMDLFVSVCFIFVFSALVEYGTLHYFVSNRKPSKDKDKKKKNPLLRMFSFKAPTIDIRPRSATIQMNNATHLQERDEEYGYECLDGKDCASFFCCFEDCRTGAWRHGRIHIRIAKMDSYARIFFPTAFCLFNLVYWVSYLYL
Chain of Gamma-aminobutyric acid receptor subunit alpha-1/alpha-2/beta-2/gamma-2 (P47869 whole entry): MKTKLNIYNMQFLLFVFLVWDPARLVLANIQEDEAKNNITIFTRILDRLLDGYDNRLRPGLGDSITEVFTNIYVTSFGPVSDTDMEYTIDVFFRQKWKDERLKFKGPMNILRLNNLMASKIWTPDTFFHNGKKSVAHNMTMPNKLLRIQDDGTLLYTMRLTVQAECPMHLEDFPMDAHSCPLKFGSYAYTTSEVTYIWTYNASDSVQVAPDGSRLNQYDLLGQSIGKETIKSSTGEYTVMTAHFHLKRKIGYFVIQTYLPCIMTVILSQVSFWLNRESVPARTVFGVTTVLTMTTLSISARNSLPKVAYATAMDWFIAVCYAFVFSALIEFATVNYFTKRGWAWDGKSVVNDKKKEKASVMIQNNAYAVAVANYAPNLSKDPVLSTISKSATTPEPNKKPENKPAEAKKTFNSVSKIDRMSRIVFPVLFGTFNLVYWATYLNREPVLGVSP

[4] = biological target: Prostaglandin G/H synthase 1 (Homo sapiens, UniProt P23219); assay type: functional
Chain of Prostaglandin G/H synthase 1 (Homo sapiens, UniProt P23219) (P23219 whole entry): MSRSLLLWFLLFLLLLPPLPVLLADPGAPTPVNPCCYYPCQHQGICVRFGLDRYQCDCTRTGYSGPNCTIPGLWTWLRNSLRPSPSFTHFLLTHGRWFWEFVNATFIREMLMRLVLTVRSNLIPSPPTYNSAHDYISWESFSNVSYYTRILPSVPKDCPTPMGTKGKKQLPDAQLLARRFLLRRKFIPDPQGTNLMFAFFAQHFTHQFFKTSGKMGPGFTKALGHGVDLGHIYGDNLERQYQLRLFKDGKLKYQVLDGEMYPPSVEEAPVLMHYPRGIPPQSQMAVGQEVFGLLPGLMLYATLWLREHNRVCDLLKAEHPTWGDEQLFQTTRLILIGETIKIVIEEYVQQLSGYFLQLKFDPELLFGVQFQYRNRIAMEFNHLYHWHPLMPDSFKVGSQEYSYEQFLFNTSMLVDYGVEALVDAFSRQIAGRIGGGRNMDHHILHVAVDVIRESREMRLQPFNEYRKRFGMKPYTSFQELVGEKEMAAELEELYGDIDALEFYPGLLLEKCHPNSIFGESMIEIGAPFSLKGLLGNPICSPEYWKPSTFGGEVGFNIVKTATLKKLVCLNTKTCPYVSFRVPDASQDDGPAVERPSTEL

Androgen receptor = biological target: T3, Androgen receptor (Homo sapiens, UniProt P10275)
T3 sequence (P10275 whole entry): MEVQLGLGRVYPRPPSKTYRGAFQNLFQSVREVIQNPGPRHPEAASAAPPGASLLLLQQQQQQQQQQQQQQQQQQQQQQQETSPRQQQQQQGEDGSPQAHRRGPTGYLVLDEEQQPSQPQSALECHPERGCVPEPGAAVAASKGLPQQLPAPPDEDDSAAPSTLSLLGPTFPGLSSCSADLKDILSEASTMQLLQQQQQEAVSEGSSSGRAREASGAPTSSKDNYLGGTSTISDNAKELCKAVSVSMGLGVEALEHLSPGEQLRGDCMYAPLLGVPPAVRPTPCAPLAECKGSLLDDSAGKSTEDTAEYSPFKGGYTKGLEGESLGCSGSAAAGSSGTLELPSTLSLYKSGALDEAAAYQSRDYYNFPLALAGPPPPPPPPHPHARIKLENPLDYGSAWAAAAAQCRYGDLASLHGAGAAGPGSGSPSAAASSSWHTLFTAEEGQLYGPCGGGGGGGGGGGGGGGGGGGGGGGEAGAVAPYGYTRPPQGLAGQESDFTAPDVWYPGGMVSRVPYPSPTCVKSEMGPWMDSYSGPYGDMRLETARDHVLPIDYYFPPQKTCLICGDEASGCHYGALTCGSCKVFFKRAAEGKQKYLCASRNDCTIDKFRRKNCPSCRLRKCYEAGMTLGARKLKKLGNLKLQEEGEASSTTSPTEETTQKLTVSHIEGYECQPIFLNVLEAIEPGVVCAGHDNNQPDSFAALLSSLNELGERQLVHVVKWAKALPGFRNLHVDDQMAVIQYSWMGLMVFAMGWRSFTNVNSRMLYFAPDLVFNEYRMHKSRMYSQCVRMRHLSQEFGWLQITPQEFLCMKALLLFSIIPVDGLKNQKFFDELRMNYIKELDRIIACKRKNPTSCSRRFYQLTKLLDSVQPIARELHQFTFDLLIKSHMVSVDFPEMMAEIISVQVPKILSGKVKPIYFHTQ

Prothrombin = Prothrombin (Homo sapiens, UniProt P00734); assay type: functional
[5] = biological target: Sodium-dependent noradrenaline transporter (Homo sapiens, UniProt P23975)
Chain of Sodium-dependent noradrenaline transporter (P23975 whole entry): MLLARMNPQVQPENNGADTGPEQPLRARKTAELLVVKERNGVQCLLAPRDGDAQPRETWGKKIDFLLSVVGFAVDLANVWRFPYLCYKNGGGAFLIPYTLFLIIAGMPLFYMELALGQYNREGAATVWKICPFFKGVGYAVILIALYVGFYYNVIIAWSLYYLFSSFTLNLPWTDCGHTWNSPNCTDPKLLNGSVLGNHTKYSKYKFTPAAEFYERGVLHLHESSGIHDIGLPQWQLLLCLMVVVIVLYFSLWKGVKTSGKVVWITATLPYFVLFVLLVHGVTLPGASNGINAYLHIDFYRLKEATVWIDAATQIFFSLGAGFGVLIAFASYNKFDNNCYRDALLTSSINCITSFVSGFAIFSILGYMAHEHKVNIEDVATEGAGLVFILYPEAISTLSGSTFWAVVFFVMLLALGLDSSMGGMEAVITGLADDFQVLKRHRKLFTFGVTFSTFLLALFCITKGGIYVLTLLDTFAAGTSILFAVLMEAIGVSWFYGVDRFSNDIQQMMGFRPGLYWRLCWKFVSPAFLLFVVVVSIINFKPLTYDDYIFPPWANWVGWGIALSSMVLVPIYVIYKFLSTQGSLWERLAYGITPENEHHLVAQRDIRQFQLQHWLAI

D(1A) dopamine receptor = D(1A) dopamine receptor (Homo sapiens, UniProt P21728)
Chain of D(1A) dopamine receptor (P21728 whole entry): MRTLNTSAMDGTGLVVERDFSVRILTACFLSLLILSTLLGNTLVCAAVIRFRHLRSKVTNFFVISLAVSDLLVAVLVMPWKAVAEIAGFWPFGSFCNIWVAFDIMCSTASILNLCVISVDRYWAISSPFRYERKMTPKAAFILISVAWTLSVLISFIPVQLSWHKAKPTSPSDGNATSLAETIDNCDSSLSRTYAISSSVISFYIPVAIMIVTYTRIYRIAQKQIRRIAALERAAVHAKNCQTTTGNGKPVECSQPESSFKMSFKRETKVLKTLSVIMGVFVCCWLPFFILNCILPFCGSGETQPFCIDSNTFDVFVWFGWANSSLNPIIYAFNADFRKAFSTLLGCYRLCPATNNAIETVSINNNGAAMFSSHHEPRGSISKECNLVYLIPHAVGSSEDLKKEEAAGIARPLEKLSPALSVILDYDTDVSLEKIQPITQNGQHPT

[6] = biological target: Sodium-dependent dopamine transporter (Homo sapiens, UniProt Q01959)
Chain of Sodium-dependent dopamine transporter (Q01959 whole entry): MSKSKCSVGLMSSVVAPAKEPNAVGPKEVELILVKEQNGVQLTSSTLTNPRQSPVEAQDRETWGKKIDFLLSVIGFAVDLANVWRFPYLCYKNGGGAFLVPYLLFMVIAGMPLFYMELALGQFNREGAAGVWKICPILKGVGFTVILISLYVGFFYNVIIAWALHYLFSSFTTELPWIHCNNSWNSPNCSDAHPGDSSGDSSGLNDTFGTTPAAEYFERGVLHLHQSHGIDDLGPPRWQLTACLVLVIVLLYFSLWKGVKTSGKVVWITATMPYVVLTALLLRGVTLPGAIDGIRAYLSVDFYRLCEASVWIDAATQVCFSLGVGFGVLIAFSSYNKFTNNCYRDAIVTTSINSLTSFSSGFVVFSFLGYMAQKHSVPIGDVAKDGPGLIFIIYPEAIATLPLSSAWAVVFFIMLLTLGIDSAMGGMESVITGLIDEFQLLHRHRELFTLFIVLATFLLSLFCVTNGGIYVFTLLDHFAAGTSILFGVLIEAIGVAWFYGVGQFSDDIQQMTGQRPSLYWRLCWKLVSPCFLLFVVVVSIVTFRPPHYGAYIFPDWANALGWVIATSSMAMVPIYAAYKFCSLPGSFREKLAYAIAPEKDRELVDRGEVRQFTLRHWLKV

Estrogen receptor = biological target: T4, Estrogen receptor (Homo sapiens, UniProt P03372); assay type: functional
T4 sequence (P03372 whole entry): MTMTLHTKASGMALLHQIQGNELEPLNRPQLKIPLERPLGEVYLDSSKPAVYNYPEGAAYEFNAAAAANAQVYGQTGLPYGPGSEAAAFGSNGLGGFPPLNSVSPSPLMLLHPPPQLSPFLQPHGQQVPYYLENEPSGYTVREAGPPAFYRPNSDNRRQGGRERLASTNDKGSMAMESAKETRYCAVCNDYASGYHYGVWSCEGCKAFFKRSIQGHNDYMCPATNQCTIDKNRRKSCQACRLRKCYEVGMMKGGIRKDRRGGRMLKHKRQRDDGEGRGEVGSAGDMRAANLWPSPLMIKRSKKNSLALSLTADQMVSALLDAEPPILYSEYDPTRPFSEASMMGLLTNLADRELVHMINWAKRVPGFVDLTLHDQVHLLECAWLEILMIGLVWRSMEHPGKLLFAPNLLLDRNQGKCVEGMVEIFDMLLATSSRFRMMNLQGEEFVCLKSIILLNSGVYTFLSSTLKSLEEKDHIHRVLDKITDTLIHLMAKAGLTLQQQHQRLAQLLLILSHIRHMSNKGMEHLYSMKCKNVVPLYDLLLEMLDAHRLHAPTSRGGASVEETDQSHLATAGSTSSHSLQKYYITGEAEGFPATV
Also: assay procedure not described here.

With `CCOC(=O)C(C)(C)Oc1ccc(Cl)cc1` [CLOFIBRATE] the AC50 [1] was greater than 30 µM.
`CCOC(=O)c1ncn2c1CN(C)C(=O)c1cc(F)ccc1-2` [FLUMAZENIL] gave an AC50 [2] greater than 30 µM.
For `CCN(CC)CCCC(C)Nc1c2ccc(Cl)cc2nc2ccc(OC)cc12` (stereo not given) [QUINACRINE], the AC50 [3] was greater than 30 µM, the AC50 [4] was greater than 30 µM and the AC50 (Androgen receptor) was greater than 30 µM. It also gave an AC50 (Prothrombin) greater than 30 µM, an AC50 [5] of 6.92 µM and an AC50 (D(1A) dopamine receptor) of 12.3 µM. It also gave an AC50 [6] of 18.4 µM.
With `CCOC(=O)[C@@H](N)Cc1ccc(-c2cc(O[C@H](c3ccc(Cl)cc3-n3ccc(C)n3)C(F)(F)F)nc(N)n2)cc1` [TELOTRISTAT ETHYL] the AC50 (Estrogen receptor) was greater than 30 µM.
